Laboratory results published in ChEMBL document CHEMBL5215002, “Selective Inhibition of PTP1B by New Anthraquinone Glycosides from Knoxia valerianoides” (J Nat Prod, 2022).
Active and inactive are the calls of the source. The rule behind the calls is not given here.

Columns and labels:
[1] = target: T1, Tyrosine-protein phosphatase non-receptor type 1 (Homo sapiens, UniProt P18031); test: Inhibition of N-terminal His-tagged recombinant human PTP1B expressed in Escherichia coli
T1 sequence (P18031 whole entry): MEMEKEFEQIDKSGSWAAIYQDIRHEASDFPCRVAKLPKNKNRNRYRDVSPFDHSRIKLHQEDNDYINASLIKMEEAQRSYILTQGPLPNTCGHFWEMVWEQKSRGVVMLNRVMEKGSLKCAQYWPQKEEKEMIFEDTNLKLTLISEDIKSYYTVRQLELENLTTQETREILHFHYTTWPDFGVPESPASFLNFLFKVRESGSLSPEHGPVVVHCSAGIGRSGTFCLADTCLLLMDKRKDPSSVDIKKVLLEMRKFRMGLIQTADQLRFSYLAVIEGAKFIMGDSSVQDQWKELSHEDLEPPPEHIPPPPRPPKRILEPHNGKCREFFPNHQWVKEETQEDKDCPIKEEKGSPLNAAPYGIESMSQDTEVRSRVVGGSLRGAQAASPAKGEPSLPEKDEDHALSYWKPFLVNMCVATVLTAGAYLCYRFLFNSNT

[2] = target: T2, Tyrosine-protein phosphatase non-receptor type 2 (Homo sapiens, UniProt P17706); test: Inhibition of recombinant human TCPTP (1 to 314 residues) expressed in baculovirus-insect cells
T2 sequence (P17706 whole entry): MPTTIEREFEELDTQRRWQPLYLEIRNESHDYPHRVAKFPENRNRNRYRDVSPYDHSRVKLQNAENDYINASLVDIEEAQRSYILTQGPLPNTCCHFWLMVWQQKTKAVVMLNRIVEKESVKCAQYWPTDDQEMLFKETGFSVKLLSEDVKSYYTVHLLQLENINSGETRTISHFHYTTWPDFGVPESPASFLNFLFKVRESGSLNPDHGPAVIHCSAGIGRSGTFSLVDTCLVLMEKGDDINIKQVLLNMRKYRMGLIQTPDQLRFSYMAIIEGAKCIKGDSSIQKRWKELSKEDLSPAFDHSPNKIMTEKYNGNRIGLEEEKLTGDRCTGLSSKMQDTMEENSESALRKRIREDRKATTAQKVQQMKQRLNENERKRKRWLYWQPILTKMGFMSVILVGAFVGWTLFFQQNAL

[3] = organism: Homo sapiens; test: Selectivity index, ratio of IC50 for inhibition of recombinant human TCPTP (1 to 314 residues) expressed in baculovirus infected insect cells to IC50 for inhibition of N-terminal His-tagged recombinant human PTP1B expressed in Escherichia coli
[4] = target: T3, Tyrosine-protein phosphatase non-receptor type 2 (Homo sapiens) (UniProt P17706); test: Inhibition of recombinant human TCPTP (1 to 314 residues) expressed in baculovirus-insect cells at 100 uM relative to control
T3 sequence (whole entry): T2 sequence (P17706 whole entry)

[5] = target: T4, Tyrosine-protein phosphatase non-receptor type 1 (Homo sapiens) (UniProt P18031); test: Mixed type inhibition of N-terminal His-tagged recombinant human PTP1B expressed in Escherichia coli assessed as reduction in Vmax with increase in Km using varying concentrations of pNPP as substrate preincubated for 15 mins followed by substrate addition and measured after 15 mins by Lineweaver-Burk plot analysis; details: time 30.0 min
T4 sequence (whole entry): T1 sequence (P18031 whole entry)

[6] = target: T1, Tyrosine-protein phosphatase non-receptor type 1; test: Mixed type inhibition of N-terminal His-tagged recombinant human PTP1B expressed in Escherichia coli using pNPP as substrate assessed as inhibition constant preincubated for 15 mins followed by substrate addition and measured after 15 mins by Dixon plot analysis

Q: For `COc1ccc2c(c1)C(=O)c1cc(O[C@@H]3O[C@H](CO[C@@H]4OC[C@@H](O)[C@H](O)[C@H]4O)[C@@H](O)[C@H](O)[C@H]3O)c(CO)c(O)c1C2=O`, which IC50 [1] is on record?
A: Its IC50 is 11.3 µM.

Q: What about the IC50 [2] of the same compound?
A: The IC50 was greater than 100 µM.

Q: And the Ratio IC50 [3]?
A: The Ratio IC50 was 8.9.

Q: What about the inhibition [4] of the same compound?
A: The inhibition was less than 20%.

Q: With `COc1ccc2c(c1)C(=O)c1cc(O)c(CO[C@@H]3O[C@H](CO[C@@H]4OC[C@@H](O)[C@H](O)[C@H]4O)[C@@H](O)[C@H](O)[C@H]3O)c(O)c1C2=O` as the compound, how does the IC50 [1] read?
A: The IC50 was 7.52 µM.

Q: For `O=C1c2ccccc2C(=O)c2c1cc(O)c(CO[C@@H]1O[C@H](CO)[C@@H](O)[C@H](O)[C@H]1O)c2O`, which IC50 [1] is on record?
A: The IC50 was 3.86 µM.

Q: And the inhibition [5]?
A: Its inhibition is “Active”.

Q: And the IC50 [2]?
A: Its IC50 is greater than 100 µM.

Q: And the Ratio IC50 [3]?
A: The Ratio IC50 was 25.9.

Q: And the inhibition [4]?
A: Its inhibition is less than 20%.

Q: What about the Ki [6] of the same compound?
A: The Ki was 3.02 µM.

Q: For `COc1ccc2c(c1O)C(=O)c1cc(O[C@@H]3O[C@H](CO[C@@H]4OC[C@@H](O)[C@H](O)[C@H]4O)[C@@H](O)[C@H](O)[C@H]3O)c(CO)c(O)c1C2=O`, which IC50 [1] is on record?
A: The IC50 was 3.52 µM.

Q: How did the IC50 [1] turn out when `O=C1c2ccccc2C(=O)c2c1cc(O[C@@H]1O[C@H](CO)[C@@H](O)[C@H](O)[C@H]1O)c(CO)c2O` was run?
A: The IC50 was 10.8 µM.

Q: Which IC50 [1] does the source give for `Cc1c(O[C@@H]2O[C@H](CO[C@@H]3OC[C@@H](O)[C@H](O)[C@H]3O)[C@@H](O)[C@H](O)[C@H]2O)cc2c(c1O)C(=O)c1ccc(O)c(O)c1C2=O` here?
A: Its IC50 is 1.05 µM.

Q: And the inhibition [5]?
A: The inhibition was “Active”.

Q: And the IC50 [2]?
A: Its IC50 is 78 µM.

Q: And the Ratio IC50 [3]?
A: Its Ratio IC50 is 74.3.

Q: What about the Ki [6] of the same compound?
A: Its Ki is 1.21 µM.

Q: Which IC50 [1] does the source give for `Cc1c(O[C@@H]2O[C@H](CO[C@@H]3OC[C@@H](O)[C@H](O)[C@H]3O)[C@@H](O)[C@H](O)[C@H]2O)cc2c(c1O)C(=O)c1ccccc1C2=O` here?
A: The IC50 was 13.7 µM.

Q: `COc1ccc2c(c1O)C(=O)c1cc(O[C@@H]3O[C@H](CO)[C@@H](O)[C@H](O)[C@H]3O)c(CO)c(O)c1C2=O` was tested. Which IC50 [1] did it give?
A: The IC50 was 3.05 µM.

Q: Which Ratio IC50 [3] does the source give for SODIUM ORTHOVANAD here?
A: The Ratio IC50 was 0.67.

Q: With `COc1ccc2c(c1)C(=O)c1cc(O[C@@H]3O[C@H](CO[C@@H]4OC[C@@H](O)[C@H](O)[C@H]4O)[C@@H](O)[C@H](O)[C@H]3O)c(C)c(O)c1C2=O` as the compound, how does the IC50 [1] read?
A: Its IC50 is 9.04 µM.

Q: How did the IC50 [1] turn out when `COc1ccc2c(c1O)C(=O)c1cc(O[C@@H]3O[C@H](CO[C@@H]4OC[C@@H](O)[C@H](O)[C@H]4O)[C@@H](O)[C@H](O)[C@H]3O)c(C)c(O)c1C2=O` was run?
A: The IC50 was 7.28 µM.

Q: What about the IC50 [2] of the same compound?
A: Its IC50 is greater than 100 µM.

Q: And the Ratio IC50 [3]?
A: The Ratio IC50 was 13.7.

Q: And the inhibition [4]?
A: The inhibition was 40%.

Q: With `COc1ccc2c(c1)C(=O)c1cc(O[C@@H]3O[C@H](CO)[C@@H](O)[C@H](O)[C@H]3O)c(CO)c(O)c1C2=O` as the compound, how does the IC50 [1] read?
A: Its IC50 is 1.56 µM.

Q: What about the IC50 [2] of the same compound?
A: The IC50 was greater than 100 µM.

Q: And the Ratio IC50 [3]?
A: The Ratio IC50 was 64.1.

Q: And the inhibition [4]?
A: Its inhibition is less than 20%.
